Results as given in patent US12139492B2 (Endotarget Inc., priority 2021, dated 2024).
Read-outs that look alike come from different tables or passages of the source.

Legend:
BTK [1] = target: T1, BTK (Homo sapiens, UniProt Q06187); experiment: Degradation of BTK protein in Namalwa cells (Western blot; DC50, Dmax); settings: for degradation of BTK protein at 10^−6 M / degradation of BTK protein: Namalwa B lymphocyte cells, Western blot; for degradation of BTK protein: various concentrations, 24 hours; for DC50: cell line not given
T1 sequence (Q06187 whole entry): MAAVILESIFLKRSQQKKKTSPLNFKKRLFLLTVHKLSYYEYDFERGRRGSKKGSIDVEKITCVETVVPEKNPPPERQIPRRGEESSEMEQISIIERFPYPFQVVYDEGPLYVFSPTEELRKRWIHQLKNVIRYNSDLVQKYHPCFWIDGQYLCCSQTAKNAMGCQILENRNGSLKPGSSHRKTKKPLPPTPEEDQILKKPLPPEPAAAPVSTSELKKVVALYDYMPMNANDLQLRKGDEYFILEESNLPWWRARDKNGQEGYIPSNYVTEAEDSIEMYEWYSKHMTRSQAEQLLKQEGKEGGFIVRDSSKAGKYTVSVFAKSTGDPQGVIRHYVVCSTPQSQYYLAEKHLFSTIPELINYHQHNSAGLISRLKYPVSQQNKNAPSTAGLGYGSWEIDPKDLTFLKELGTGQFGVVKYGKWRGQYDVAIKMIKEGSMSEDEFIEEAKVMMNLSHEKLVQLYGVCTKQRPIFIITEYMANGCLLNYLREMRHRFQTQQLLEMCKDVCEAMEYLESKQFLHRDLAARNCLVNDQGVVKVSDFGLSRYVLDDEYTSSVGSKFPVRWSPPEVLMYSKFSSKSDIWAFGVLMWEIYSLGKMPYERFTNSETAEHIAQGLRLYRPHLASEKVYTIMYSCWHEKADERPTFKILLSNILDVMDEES

BTK [2] = target: T1, BTK; experiment: Degradation of BTK protein in Mino cells (Western blot; DC50, Dmax); settings: Mino mantle cell lymphoma cells, various concentrations, 24 hours
Description: (§2) Namalwa, JeKo-1, or Mino cells were plated in 24-well plates at a density of 10^5 cells/well. Media containing various drug concentrations were added on the day following plating (day 0) and allowed to incubate for 24 hours for Western blot. Media with the tested compound was changed every other day. […] Media were removed and dishes were washed with 1×DPBS. Lysates were made by adding 150 μL of complete lysis solution and scraping cells into a 1.5 mL microcentrifuge tube. Lysates were placed on a rotisserie at 4° C. for 30 min and then spun at 4° C. at 12000 rcf for 10 min. Supernatants were assayed for protein content, snap-frozen, and stored a −80° C. if not run immediately. Then 50 μg of protein was subjected to Western blot protocol. […] They were then imaged on a LICOR infrared scanner.

JeKo-1 cells = experiment: Antiproliferative effect, MTS cell viability assay, JeKo-1 cells; type: cell-based; settings: JeKo-1 mantle cell lymphoma cells, read-out: IC50 (anti-proliferation) JeKO-1 cells
Outline: (§1)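 Readout was MTS-derived formazan absorbance (490 nm) reflecting metabolically active cells. Treatment lasted 72 h over a 0–10 μM range (0.001, 0.01, 0.1, 1, 10 μM) in JeKo-1 and Mino B-cell malignancy cells.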

BTK [3] = target: T1, BTK; experiment: BTK degradation, DC50 and Dmax of Table 1 (cell line not given); type: cell-based; parameters: endogenous in cells; settings: for DC50: concentration giving 50% reduction of BTK expression level
BTK [4] = target: T1, BTK; experiment: Degradation of BTK protein in JeKo-1 cells (Western blot; DC50, Dmax); settings: JeKo-1 mantle cell lymphoma cells, various concentrations, 24 hours
Description: as §2

Mino cells = experiment: Antiproliferative effect, MTS cell viability assay, Mino cells; type: cell-based; settings: Mino mantle cell lymphoma cells, read-out: IC50 (anti-proliferation) Mino cells
Outline: as §1

[5] = read-out: DC50 (BTK degradation), concentration giving 50% reduction of BTK expression level
[6] = read-out: Dmax (BTK degradation)

SMILES	degradation of BTK protein at 10^−6 M (BTK [1])	degradation of BTK protein (BTK [1])	degradation of BTK protein (BTK [2])	Dmax (BTK [3])	DC50 (BTK [3])	degradation of BTK protein (BTK [4])	DC50 (BTK [1]; [5])	Dmax (BTK [1]; [6])	Dmax (BTK [1])	DC50 (BTK [1]; BTK degradation)	IC50 (JeKo-1 cells; Homo sapiens)	IC50 (Mino cells; Homo sapiens, MINO)	IC50 (JeKo-1 cells)	IC50 (Mino cells)	IC50 (Mino cells; Homo sapiens)
Nc1ncnc2c1c(-c1ccc(Oc3ccccc3)cc1)nn2[C@@H]1CCCN(CC2CCN(C(=O)N3CCC(N4CCN(c5ccc6c(c5)C(=O)N(C5CCC(=O)NC5=O)C6=O)CC4)CC3)CC2)C1 (stereo partly drawn) [Compound 27, 5-(4-(1-(4-(((R)-3-(4-amino-3-(4-phenoxyphenyl)-1H-pyrazolo(3,4-d)pyrimidin-1-yl)piperidin-1-yl)methyl)piperidine-1-carbonyl)piperidin-4-yl)piperazin-1-yl)-2-(2,6-dioxopiperidin-3-yl)isoindoline-1,3-dione]	degradation	dose-dependent degradation	dose-dependent degradation	> 90%	< 10 nM	dose-dependent degradation					< 1000 nM	1000 to 10000 nM			
Nc1ncnc2c1c(-c1ccc(Oc3ccccc3)cc1)nn2C1CCN(C2CCN(CC3CCN(c4ccc5c(c4)C(=O)N(C4CCC(=O)NC4=O)C5=O)CC3)CC2)CC1 (stereo not drawn) [Compound 213, 5-(4-((4-(4-amino-3-(4-phenoxyphenyl)-1H-pyrazolo(3,4-d)pyrimidin-1-yl)-(1,4′-bipiperidin)-1′-yl)methyl)piperidin-1-yl)-2-(2,6-dioxopiperidin-3-yl)isoindoline-1,3-dione]		dose-dependent degradation	dose-dependent degradation			dose-dependent degradation			> 90%	< 10 nM	< 1000 nM	< 1000 nM			
Nc1ncnc2c1c(-c1ccc(Oc3ccccc3)cc1)nn2C1CCN(C(=O)N2CC(N3CCN(c4ccc5c(c4)C(=O)N(C4CCC(=O)NC4=O)C5=O)CC3)C2)CC1 (stereo not drawn) [Compound 477, 5-(4-(1-(4-(4-amino-3-(4-phenoxyphenyl)-1H-pyrazolo[3,4-d]pyrimidin-1-yl)piperidine-1-carbonyl)azetidin-3-yl)piperazin-1-yl)-2-(2,6-dioxopiperidin-3-yl)isoindoline-1,3-dione]			dose-dependent degradation				< 10 nM	> 90%			< 1000 nM	< 1000 nM			
Nc1ncnc2c1c(-c1ccc(Oc3ccccc3)cc1)nn2C1CCN(CC2CCN(C(=O)N3CCN(c4ccc5c(c4)CN(C4CCC(=O)NC4=O)C5=O)CC3)CC2)CC1 (stereo not drawn) [Compound 36, 3-(5-(4-(4-((4-(4-amino-3-(4-phenoxyphenyl)-1H-pyrazolo(3,4-d)pyrimidin-1-yl)piperidin-1-yl)methyl)piperidine-1-carbonyl)piperazin-1-yl)-1-oxoisoindolin-2-yl)piperidine-2,6-dione]		dose-dependent degradation		> 90%	< 10 nM	dose-dependent degradation					< 1000 nM				< 1000 nM
Nc1ncnc2c1c(-c1ccc(Oc3ccccc3)cc1)nn2C1CCN(C(=O)N2CCN(c3ccc4c(c3)C(=O)N(C3CCC(=O)NC3=O)C4=O)CC2)CC1 (stereo not drawn) [Compound 75, 5-(4-(4-(4-amino-3-(4-phenoxyphenyl)-1H-pyrazolo(3,4-d)pyrimidin-1-yl)piperidine-1-carbonyl)piperazin-1-yl)-2-(2,6-dioxopiperidin-3-yl)isoindoline-1,3-dione]	degradation			> 50%	> 50 nM						> 10000 nM	> 10000 nM			

Second part, led by results:

degradation of BTK protein at 10^−6 M (BTK [1])	degradation of BTK protein (BTK [1])	degradation of BTK protein (BTK [2])	Dmax (BTK [3])	DC50 (BTK [3])	degradation of BTK protein (BTK [4])	DC50 (BTK [1]; [5])	Dmax (BTK [1]; [6])	Dmax (BTK [1])	DC50 (BTK [1]; BTK degradation)	SMILES	IC50 (JeKo-1 cells; Homo sapiens)	IC50 (Mino cells; Homo sapiens, MINO)	IC50 (JeKo-1 cells)	IC50 (Mino cells)	IC50 (Mino cells; Homo sapiens)
	dose-dependent degradation	dose-dependent degradation				< 10 nM	> 90%			Nc1ncnc2c1c(-c1ccc(Oc3ccccc3)cc1)nn2C1CCN(C(=O)N2CC(N3CCN(c4ccc5c(c4)CN(C4CCC(=O)NC4=O)C5=O)CC3)C2)CC1 (stereo not drawn) [Compound 478, 3-(5-(4-(1-(4-(4-amino-3-(4-phenoxyphenyl)-1H-pyrazolo[3,4-d]pyrimidin-1-yl)piperidine-1-carbonyl)azetidin-3-yl)piperazin-1-yl)-1-oxoisoindolin-2-yl)piperidine-2,6-dione]	< 1000 nM	< 1000 nM			
	dose-dependent degradation				dose-dependent degradation	10 to 50 nM	> 90%			Nc1ncnc2c1c(-c1ccc(Oc3ccccc3)cc1)nn2C1CCN(C2CCN(CC3CN(c4ccc5c(c4)C(=O)N(C4CCC(=O)NC4=O)C5=O)C3)C2)CC1 (stereo not drawn) [Compound 425, 5-(3-((3-(4-(4-amino-3-(4-phenoxyphenyl)-1H-pyrazolo(3,4-d)pyrimidin-1-yl)piperidin-1-yl)pyrrolidin-1-yl)methyl)azetidin-1-yl)-2-(2,6-dioxopiperidin-3-yl)isoindoline-1,3-dione]	1000 to 10000 nM	1000 to 10000 nM			
		dose-dependent degradation				< 10 nM	> 90%			Nc1ncnc2c1c(-c1ccc(Oc3ccccc3)cc1)nn2C1CCN(C(=O)N2CC(N3CCN(c4ccc5c(c4)CN([C@H]4CCC(=O)NC4=O)C5=O)CC3)C2)CC1 [Compound 484, (S)-3-(5-(4-(1-(4-(4-amino-3-(4-phenoxyphenyl)-1H-pyrazolo[3,4-d]pyrimidin-1-yl)piperidine-1-carbonyl)azetidin-3-yl)piperazin-1-yl)-1-oxoisoindolin-2-yl)piperidine-2,6-dione]	< 1000 nM	< 1000 nM			
	dose-dependent degradation		> 90%	< 10 nM	dose-dependent degradation					Nc1ncnc2c1c(-c1ccc(Oc3ccccc3)cc1)nn2C1CCN(C(=O)N2CCC(CN3CCN(c4ccc5c(c4)CN(C4CCC(=O)NC4=O)C5=O)CC3)CC2)CC1 (stereo not drawn) [Compound 86, 3-(5-(4-((1-(4-(4-amino-3-(4-phenoxyphenyl)-1H-pyrazolo(3,4-d)pyrimidin-1-yl)piperidine-1-carbonyl)piperidin-4-yl)methyl)piperazin-1-yl)-1-oxoisoindolin-2-yl)piperidine-2,6-dione]	< 1000 nM	< 1000 nM			
	dose-dependent degradation	dose-dependent degradation			dose-dependent degradation	< 10 nM	> 90%			Nc1ncnc2c1c(-c1ccc(Oc3ccccc3)cc1)nn2C1CCN(CCOCCOCCN2CCC(c3ccc4c(c3)CN(C3CCC(=O)NC3=O)C4=O)CC2)CC1 (stereo not drawn) [Compound 419, 3-(5-(1-(2-(2-(2-(4-(4-amino-3-(4-phenoxyphenyl)-1H-pyrazolo[3,4-d]pyrimidin-1-yl)piperidin-1-yl)ethoxy)ethoxy)ethyl)piperidin-4-yl)-1-oxoisoindolin-2-yl)piperidine-2,6-dione]			1000 to 10000 nM	1000 to 10000 nM	
	dose-dependent degradation	dose-dependent degradation			dose-dependent degradation	< 10 nM	> 90%			Nc1ncnc2c1c(-c1ccc(Oc3ccccc3)cc1)nn2C1CCN(CC2CN(CC3CCN(c4ccc5c(c4)C(=O)N(C4CCC(=O)NC4=O)C5=O)CC3)C2)CC1 (stereo not drawn) [Compound 439, 5-(4-((3-((4-(4-amino-3-(4-phenoxyphenyl)-1H-pyrazolo(3,4-d)pyrimidin-1-yl)piperidin-1-yl)methyl)azetidin-1-yl)methyl)piperidin-1-yl)-2-(2,6-dioxopiperidin-3-yl)isoindoline-1,3-dione]	1000 to 10000 nM	< 1000 nM			
	dose-dependent degradation	dose-dependent degradation			dose-dependent degradation	< 10 nM	> 90%			Nc1ncnc2c1c(-c1ccc(Oc3ccccc3)cc1)nn2C1CCN(CC2CCN(/C=C/C(=O)CN3CCN(c4ccc5c(c4)CN(C4CCC(=O)NC4=O)C5=O)CC3)CC2)CC1 (stereo not drawn) [Compound 420, (E)-3-(5-(4-(4-(4-((4-(4-amino-3-(4-phenoxyphenyl)-1H-pyrazolo[3,4-d]pyrimidin-1-yl)piperidin-1-yl)methyl)piperidin-1-yl)-2-oxobut-3-en-1-yl)piperazin-1-yl)-1-oxoisoindolin-2-yl)piperidine-2,6-dione]	1000 to 10000 nM	1000 to 10000 nM			
	dose-dependent degradation	dose-dependent degradation				< 10 nM	> 90%			Nc1ncnc2c1c(-c1ccc(Oc3ccccc3)cc1)nn2C1CCN(C2CCN(CC3CCN(c4ccc5c(c4)C(=O)N(C4CCC(=O)NC4=O)C5=O)CC3)C2)CC1 (stereo not drawn) [Compound 449, 5-(4-((3-(4-(4-amino-3-(4-phenoxyphenyl)-1H-pyrazolo(3,4-d)pyrimidin-1-yl)piperidin-1-yl)pyrrolidin-1-yl)methyl)piperidin-1-yl)-2-(2,6-dioxopiperidin-3-yl)isoindoline-1,3-dione]	< 1000 nM	< 1000 nM			
